Experimental data from paper PMC10025480 (Frontiers in Pharmacology, 2023).

Tests used:
hTMEM16Aabc = biological target: T1, hTMEM16Aabc (Homo sapiens, UniProt Q5XXA6, DEL476-501); assay: Short-circuit current (ISC), FRT-TMEM16Aabc monolayers in Ussing chambers; type: cell-based; settings: for UTP-stimulated integrated ISC response (AUC) / UTP-stimulated peak increase in ISC: 5 min pre-treatment, apical, UTP 10 µM, concentration-dependent
T1 construct: expressed in transfected cells
T1 sequence (Q5XXA6 with tags, fused parts or gaps isoform Q5XXA6-5 DEL539-564): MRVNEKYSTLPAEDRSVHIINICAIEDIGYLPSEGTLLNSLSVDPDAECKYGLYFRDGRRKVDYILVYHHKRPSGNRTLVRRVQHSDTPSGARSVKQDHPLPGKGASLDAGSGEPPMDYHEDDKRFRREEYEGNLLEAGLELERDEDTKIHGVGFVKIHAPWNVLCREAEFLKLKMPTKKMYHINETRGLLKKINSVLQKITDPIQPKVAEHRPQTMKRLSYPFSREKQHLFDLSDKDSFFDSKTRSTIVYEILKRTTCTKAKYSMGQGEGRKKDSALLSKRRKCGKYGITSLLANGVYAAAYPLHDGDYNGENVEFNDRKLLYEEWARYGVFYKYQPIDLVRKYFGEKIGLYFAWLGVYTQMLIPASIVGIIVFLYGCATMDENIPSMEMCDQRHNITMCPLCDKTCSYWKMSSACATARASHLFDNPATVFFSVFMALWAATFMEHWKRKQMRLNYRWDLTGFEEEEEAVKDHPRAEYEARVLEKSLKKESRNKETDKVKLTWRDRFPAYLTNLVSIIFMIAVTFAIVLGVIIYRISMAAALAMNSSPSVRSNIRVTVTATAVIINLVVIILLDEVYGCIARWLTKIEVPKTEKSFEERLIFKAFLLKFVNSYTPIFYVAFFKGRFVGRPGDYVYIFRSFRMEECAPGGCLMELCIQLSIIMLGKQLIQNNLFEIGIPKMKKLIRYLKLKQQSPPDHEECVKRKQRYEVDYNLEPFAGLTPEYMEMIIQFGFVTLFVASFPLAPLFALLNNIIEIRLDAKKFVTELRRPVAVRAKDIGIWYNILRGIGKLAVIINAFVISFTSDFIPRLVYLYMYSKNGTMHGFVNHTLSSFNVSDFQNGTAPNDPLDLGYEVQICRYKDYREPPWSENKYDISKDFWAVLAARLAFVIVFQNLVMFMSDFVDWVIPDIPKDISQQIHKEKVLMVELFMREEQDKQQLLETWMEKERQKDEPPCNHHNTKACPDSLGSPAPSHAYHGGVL
Procedure: FRT-hTMEM16Aabc cells were mounted in Ussing chambers in asymmetrical Ringers solutions. The basolateral Ringers contained (in mM): 120 NaCl, 25 NaHCO3, 3.3 KH2PO4, 0.8 K2HPO4, 1.2 CaCl2, 1.2 MgCl2, and 10 glucose. In the apical Ringers solution, NaCl was reduced to 80 mM and 40 mM sodium gluconate was included to establish a Cl^− gradient. The solution osmolarity was between 280 and 300 mosmol kg H2O^−1 and was continuously gassed (5% CO2 in O2; pH 7.4) and maintained at 37°C. Cells were voltage clamped to 0 mV (model EVC4000; WPI) and the short-circuit current (ISC) was measured. Data were recorded using a PowerLab workstation and LabChart software (ADInstruments, Abingdon, Oxon, United Kingdom). TMEM16A blockers were added to the apical side of the epithelium for 5 min before the addition of UTP, that was used to stimulate a TMEM16A-mediated chloride secretory responses.

[1] = design: method as in Papp et al., 2019; settings: PAH patients; ref Papp et al., 2019; cited from earlier work
[2] = test system: human vascular smooth muscle preparations; settings: ref Papp et al., 2019; cited from earlier work
[3] = test system: human bronchial smooth muscle; settings: cited from earlier work
hTMEM16Aacd = biological target: T2, hTMEM16Aacd (Homo sapiens, UniProt Q5XXA6); assay: Whole-cell patch clamp (QPatch), HEK-hTMEM16Aacd cells; type: cell-based
T2 construct: expressed in transfected cells; host or cells: HEK cells
T2 sequence (Q5XXA6 1-986): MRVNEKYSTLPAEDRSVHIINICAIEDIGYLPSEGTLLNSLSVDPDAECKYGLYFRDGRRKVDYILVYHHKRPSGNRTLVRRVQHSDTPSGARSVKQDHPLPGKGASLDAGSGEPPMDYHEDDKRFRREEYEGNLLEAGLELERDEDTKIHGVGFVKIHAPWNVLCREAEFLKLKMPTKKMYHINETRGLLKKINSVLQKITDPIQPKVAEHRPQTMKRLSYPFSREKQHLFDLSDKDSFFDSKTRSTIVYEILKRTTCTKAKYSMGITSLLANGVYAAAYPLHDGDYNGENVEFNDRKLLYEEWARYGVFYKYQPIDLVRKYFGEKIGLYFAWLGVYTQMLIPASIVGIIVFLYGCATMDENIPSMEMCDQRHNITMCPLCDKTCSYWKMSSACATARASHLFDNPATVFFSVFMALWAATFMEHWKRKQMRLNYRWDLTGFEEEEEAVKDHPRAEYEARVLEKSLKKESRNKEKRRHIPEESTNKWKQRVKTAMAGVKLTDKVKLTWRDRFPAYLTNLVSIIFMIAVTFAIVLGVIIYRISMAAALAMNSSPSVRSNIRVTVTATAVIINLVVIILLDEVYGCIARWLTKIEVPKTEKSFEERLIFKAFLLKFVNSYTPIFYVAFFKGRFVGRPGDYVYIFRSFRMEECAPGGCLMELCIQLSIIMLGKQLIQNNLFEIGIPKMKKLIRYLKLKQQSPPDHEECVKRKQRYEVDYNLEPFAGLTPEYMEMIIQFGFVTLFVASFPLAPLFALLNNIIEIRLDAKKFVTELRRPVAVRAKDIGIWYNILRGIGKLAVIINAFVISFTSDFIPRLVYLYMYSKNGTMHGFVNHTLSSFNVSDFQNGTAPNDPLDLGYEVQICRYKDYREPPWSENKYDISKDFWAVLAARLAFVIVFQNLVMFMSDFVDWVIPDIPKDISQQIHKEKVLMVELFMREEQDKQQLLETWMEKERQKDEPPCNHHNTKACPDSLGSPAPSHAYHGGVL
Procedure: Whole-cell voltage-clamp recordings from FRT-hTMEM16Aabc, HEK-hTMEM16Aacd, and HEK293 cells were made using the QPatch planar patch clamp system as described previously ([Bill et al., 2015]; [Danahay et al, 2020a]). TMEM16A currents were assessed using chloride selective solutions with calculated free [Ca^2+]i tightly buffered at either 415 or 0 nM. Current rectification ratios were calculated by dividing the magnitude of the outward current at +90 mV by the magnitude of the inward current at −90 mV.

Row | effect on baseline ISC prior to UTP (hTMEM16Aabc) | UTP-stimulated integrated ISC response (AUC) (hTMEM16Aabc) | UTP-stimulated peak increase in ISC (hTMEM16Aabc) | effect on TMEM16Aacd currents (hTMEM16Aacd; HEK cells, [Ca2+]i clamped at 415 nM, bell shaped concentration response) | EC50 (hTMEM16Aacd; HEK-TMEM16Aacd cells, [Ca2+]i clamped to 0 nM (TMEM16A not activated), read-out: EC50, concentration-dependent increase in current) | reversal potential of induced current (hTMEM16Aacd; [Ca2+]i clamped to 0 nM) | transient increase in ISC on addition (hTMEM16Aabc; 10 µM, vehicle 0.0 ± 0.1) | subsequent attenuation of the baseline current (hTMEM16Aabc; 10 µM, vehicle −0.3 ± 0.1) | SMILES | pulmonary artery pressure [1] | effect on vascular smooth muscle in vitro [2] | relaxation of human bronchial smooth muscle ([3]; ref Danahay et al., 2020b) | effect on freshly isolated human bronchial smooth muscle ([3]; ref Miner et al., 2019)
1 | without effect | attenuated | attenuated | – | – | – | – | – | CCc1oc2ccccc2c1C(=O)c1cc(Br)c(O)c(Br)c1 [benzbromarone] | paradoxical increase | relax | – | –
2 | – | attenuated | attenuated | enhancement of currents at low µM | 2.7 ± 0.3 µM | approximately −50 mV | 4.4 ± 0.3 µAcm^-2 | −6.7 ± 0.7 µAcm^-2 | O=C(Nc1ccc([N+](=O)[O-])cc1Cl)c1cc(Cl)ccc1O [niclosamide] | – | – | confirmed | relax
